Experimental data reported in PubChem BioAssay AID1324 (NMMLSC, 2008).
Activity calls are given as the source filed them. How the calls were made is not given here.

target: glutathione S-transferase (GST-GSH binding); experiment: GST–glutathione interaction disruption – biochemical, multiplex beads, flow cytometry, HPSMTB buffer, profiling panel (AID 1324); details: multiplex bead flow cytometry, MCF;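 further: glutathione beads loaded with GST-green fluorescent protein and no fluorescent Bim peptide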

| SMILES | EC50 |
| --- | --- |
| COc1cc(/C=N/Nc2nn3cnnc3c3ccccc23)ccc1O | 2.36 µM |
| CCN=c1scc(C)n1/N=C/c1ccc(O)c(O)c1O | inactive |
| COc1ccc(C2=Nn3c(nnc3-c3ccco3)SC2)cc1OC | 4.6 µM |
| COc1ccc2nc(-c3ccco3)c(-c3ccco3)nc2c1 | inactive |
| CCOC(=O)c1ccc(Nc2nc(C(=O)OCC)nc3ccccc23)cc1 | 2.38 µM |
| COc1ccc(OC)c(-n2c(=O)c3ccccc3c3ccccc3c2=O)c1 | inactive |

same assay, conditions: multiplex bead flow cytometry, MCF, active compounds read high, concentration not given here

| SMILES | percent span inhibition |
| --- | --- |
| Nc1ccc(N2CCCCCC2)cc1 | inactive |
| Cc1cc(-c2nnc(CCC(=O)NC(C)c3cccc4ccccc34)o2)no1 (configuration not stated) | inactive |
| CCOc1cc(/C=N/NC(=O)c2cccs2)cc([N+](=O)[O-])c1O | inactive |
| O=c1nc2c(O)cccn2c2c1c(=O)[nH]c1ccccc12 | inactive |
| Cc1noc(C)c1COc1ccc(C(=O)Nc2cccnc2)cc1 | inactive |
| S=c1[nH]cc(-c2ccccc2)n1-c1ccccc1 | inactive |
| CCNC(=S)Nc1cc(OCC)c(NC(=O)c2cccs2)cc1OCC | inactive |
| O=C(COc1ccccc1Br)NCc1ccccn1 | inactive |
| CN(C)S(=O)(=O)N(CC(=O)Nc1ccccc1C(F)(F)F)c1ccccc1 | inactive |
| O=C(Nc1ccncc1)c1cc2ccccc2o1 | inactive |
| COc1ccc(NC(=O)c2sccc2SCc2cccc(C(F)(F)F)c2)cc1 | inactive |
| COc1ccccc1Oc1ccc2c(c1)C(=O)N(c1ccccc1)C2=O | inactive |
| CC1(C)SC(=S)N(NC(=O)Nc2ccccc2)C1N(O)C(=O)Nc1cccc2ccccc12 (configuration not stated) | inactive |
| Cc1cccc(-c2nnc3n2N=C(c2ccccc2)CS3)c1 | inactive |
| Cc1cccc(C(=O)N=c2c(C#N)cc3c(=O)n4cccc(C)c4nc3n2Cc2ccco2)c1 | inactive |
| c1ccc(-c2nc(N3CCOCC3)s[n+]2-c2ccccc2)cc1 | inactive |
| Cc1ccccc1/C=N/Nc1ccnc2cc(Cl)ccc12 | inactive |
| O=C(CC1NCCNC1=O)Nc1cccc([N+](=O)[O-])c1 (configuration not stated) | inactive |
| N/C(=N\N=C/c1ccc(Br)cc1)N/N=C\c1ccc(Br)cc1 | inactive |
| CCOC(=O)c1sc(NC(=O)c2ccncc2)c(C#N)c1C | inactive |
| O=C1C(Cl)=C(Nc2ccccc2O)C(=O)N1c1ccccc1 | inactive |
| Cn1c(OCc2cccnc2)nc2c1c(=O)n(Cc1ccccc1)c(=O)n2C | inactive |
| COc1ccccc1-n1c(-c2ccccc2)c[nH]c1=S | inactive |
| Cc1onc(-c2ccccc2)c1C(=O)Nc1nnc(COc2ccc(Cl)cc2)s1 | inactive |

| SMILES | percent span inhibition |
| --- | --- |
| Cc1ccc(-c2nc3c(c(=O)[nH]c(=O)n3Cc3ccccc3)n2Cc2ccccc2)o1 | inactive |
| COc1ccc(C2=Nn3c(nnc3-c3ccccn3)SC2)cc1OC | inactive |
| CCN(CC)c1ccc(-c2nn3c(-c4n[nH]c5c4CCC5)nnc3s2)cc1 | inactive |
| CCc1nnc(NS(=O)(=O)c2ccc(N=CC3=C(O)CC(C)(C)CC3=O)cc2)s1 | inactive |
| Cc1ccc(-c2cc(-c3ccc4c(c3)OCO4)c(C#N)c(N)n2)o1 | inactive |
| OC(CNC1CCCCC1)COCCOc1ccc(Br)cc1 (configuration not stated) | inactive |
| COc1cc(CNc2ccc3[nH]c(=O)[nH]c3c2)cc(Br)c1OCC(=O)NC(C)(C)C | inactive |
| O=C(Nc1ccc2nc(-c3ccco3)c(-c3ccco3)nc2c1)N1CCN(c2ccccn2)CC1 | inactive |
| CCOc1ccccc1NC(=O)CSc1ccc2nnc(-c3cccnc3)n2n1 | inactive |
| CN=c1scc(C)n1/N=C/c1ccc(O)c(O)c1O | inactive |
| COc1ccccc1NC1=C(NC(C)=O)C(=O)c2ccccc2C1=O | inactive |
| Nc1ccc(C2=Nc3cccc4cccc(c34)N2)cc1 | inactive |
| CCSc1ncc(Cl)c(C(=O)Nc2sc3c(c2C(=O)NCc2cccnc2)CCCC3)n1 | inactive |
| Cn1c(N)c(C(=O)COC(=O)c2cc(-c3ccco3)nc3ccccc23)c(=O)n(C)c1=O | inactive |
| Cc1ccc(Nc2nc(C)cs2)cc1 | inactive |
| CCOc1ccc(C(=O)Nc2nnc(NC(=S)Nc3ccccc3)s2)cc1 | inactive |
| CCN1CCN(c2cc(C)c3cc(NC(=S)N4CCCCC4)ccc3n2)CC1 | inactive |
| CCn1c(C)nc2cc(C(=O)N/N=C/c3ccc(O)c(O)c3O)ccc21 | inactive |
| O=C(c1cc(=O)c2ccccc2o1)N1CCN(c2ccccc2F)CC1 | inactive |
| Cc1cc(-c2csc(N)n2)c(C)n1CCc1ccccc1 | inactive |
| Cc1nc2cc(F)ccc2n1C1CCN(C(=O)c2c(F)cccc2F)CC1 | inactive |
| N#Cc1cc(-c2ccccc2)nn1-c1ccccc1 | inactive |
| Cc1cc(OCc2cn3cccnc3n2)ccc1Cl | inactive |
| CN(CCCOc1ccccc1Br)Cc1ccccc1 | inactive |

| SMILES | percent span inhibition |
| --- | --- |
| O=C(N/N=C/c1ccc(O)c(O)c1O)/C(=C/c1ccc([N+](=O)[O-])cc1)NC(=O)c1ccccc1 | inactive |
| COc1ccc(N2C(=O)C(Cl)=C(Nc3c(C)n(C)n(-c4ccccc4)c3=O)C2=O)cc1 | inactive |
| O=S1(=O)N=C(N(CCO)/N=C/C=C/c2ccccc2)c2ccccc21 | inactive |
| O=C(Nc1ccc(Cl)cn1)Nc1ccccc1F | inactive |
| O=C(/C=C/c1ccccc1Cl)c1ccccc(=O)c1O | inactive |
| CC(C)C(=O)N1CCN(c2ccc([N+](=O)[O-])cc2Cl)CC1 | inactive |
| FC(F)(F)c1ccc2c(c1)C1C=CCC1C(c1ccncc1)N2 (configuration not stated) | inactive |
| CS(=O)(=O)NN1C(=O)c2ccccc2NC1c1ccccc1 (configuration not stated) | inactive |
| O=C(CNC(=O)c1ccc(S(=O)(=O)N2CCCC2)cc1)N/N=C/c1ccc(Cl)cc1Cl | inactive |
| Cn1c(N)c(C(=O)COC(=O)c2cc(-c3ccco3)nc3ccccc23)c(=O)n(Cc2ccccc2)c1=O | inactive |
| Clc1nssc1=Nc1ccc(Br)cc1 | inactive |
| Cc1sc2nc(C(C)C)nc(SCC(=O)N3c4ccccc4CC3C)c2c1C (configuration not stated) | inactive |
| CC(NC(=O)Nc1ccccn1)N1C(=O)C2C3C=CC(C3)C2C1=O (configuration not stated) | inactive |
| CN(C)c1cccc(NC(=O)C2(C)CC2(Cl)Cl)c1 (configuration not stated) | inactive |
| CCOC(=O)C1=C(CP(=O)(c2ccccc2)c2ccccc2)NC(=O)NC1c1ccc(OC)cc1 (configuration not stated) | inactive |
| Cc1cc[n+]2cc(-c3cccc([N+](=O)[O-])c3)c(-c3cccc([N+](=O)[O-])c3)cc2c1 | inactive |
| O=c1[nH]c(SCc2nc3ccccc3c(=O)n2-c2ccccc2C(F)(F)F)nc2ccccc12 | inactive |
| CC(C)c1ccc(/C=N/NC(=O)c2ccccc2Cl)cc1 | inactive |
| OC(COc1ccc2cc(Br)ccc2c1)CN1CCOCC1 (configuration not stated) | inactive |
| Cc1ccc(-n2nc(C)c(C(=O)O)n2)c(C)c1 | inactive |
| CCC(=O)OCCNc1cc(Sc2nc3ccccc3s2)c2nonc2c1[N+](=O)[O-] | inactive |
| CN(Cc1ccccc1)c1nc2c(c(=O)[nH]c(=O)n2C)n1C | inactive |
| CCSc1nnc(NC(=O)c2c(-c3ccccc3Cl)noc2C)s1 | inactive |
| Cc1csc(Nc2ccccc2C(F)(F)F)n1 | inactive |

| SMILES | percent span inhibition |
| --- | --- |
| CSc1nnc2ccc(-c3cccs3)nn12 | inactive |
| COc1cc(C2Nc3cccc4cccc(c34)N2)cc(OC)c1O | inactive |
| CC(C)COC(=O)/C(C#N)=C/c1cn(Cc2ccccc2)c2ccccc12 | inactive |
| Cc1ccc(-c2cc(C(=O)Nc3cccnc3)c3ccccc3n2)o1 | inactive |
| COc1cccc(-n2nnnc2SCC(=O)Nc2cccc(NC(C)=O)c2)c1 | inactive |
| O=C(NCCCN1CCCC1=O)NC1CCCCC1 | inactive |
| N/C(Cc1ccc(Cl)c(Cl)c1)=N\OC(=O)c1cccs1 | inactive |
| CCOC(=O)C1=C(Cc2ccc(C)cc2)C(=O)c2ccccc2C1=O | inactive |
| Cc1ccc(NC(=O)CSc2nc3ccccc3c(=O)n2CCCN2CCCCC2)cc1Cl | inactive |
| CCNC(=O)N1c2ccc(OCC)cc2C(C)=CC1(C)C | inactive |
| CC(C)(C)OC(=O)N1CCN(C(=O)[C@H](Cc2ccc(O)cc2)n2cc(CCO)nn2)CC1 | inactive |
| c1ccc(C2=Nc3cccc4cccc(c34)N2)cc1 | inactive |
| N#CC(C#N)=C1C=CC=CN1/C(=C\c1ccco1)C(=O)c1ccccc1 | inactive |
| COc1ccc(NC(=O)c2ccco2)cc1NC(=O)c1ccco1 | inactive |
| Cc1ccc(-c2nnc(Cc3ccc(Cl)cc3)o2)cc1 | inactive |
| O=C(CSc1ccc2nnc(-c3ccncc3)n2n1)Nc1nccs1 | inactive |
| N=C1C(c2nc3ccccc3s2)=C(O)CN1Cc1ccccc1 | inactive |
| CN(C)c1ccc(Nc2nc(-c3cccnc3)cs2)cc1 | inactive |
| O=C(O)/C=C/C(=O)NNC(=O)c1ccc(Br)cc1 | inactive |
| COC(=O)CSc1nccc(-c2cccs2)n1 | inactive |
| CNC(=O)/C(C#N)=C/c1c(N(Cc2ccccc2)Cc2ccccc2)nc2c(C)cccn2c1=O | inactive |
| O=C1c2ccccc2C(=O)N1c1cccc2cccnc12 | inactive |
| CC(CCc1ccccc1)NC(=O)C1CCN(S(=O)(=O)N2CCCCC2)CC1 (configuration not stated) | inactive |
| COc1ccc(COC(=O)NNC(=O)c2ccccc2Cl)cc1 | inactive |
